Assays:
A549 = test: 5-day cell proliferation assay (CTG); assay type: cell-based; settings: Homo sapiens, 120 h, A549, Lung
Method in brief: (§1)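 Day −1: cells plated, incubated overnight at 37 °C. Day 0: compounds added at tenfold working dilution, triplicate wells; baseline plate read with CTG. Day 5: CTG endpoint luminescence; GI50 fitted against untreated cells.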

BT474 = test: 5-day cell proliferation assay (CTG); assay type: cell-based; settings: Homo sapiens, BT-474, 120 h, BT474, Breast
Method in brief: as §1

CaSki = test: 5-day cell proliferation assay (CTG); assay type: cell-based; settings: Homo sapiens, Ca-Ski, 120 h, Cervix
Method in brief: as §1

Caco-2 = test: 5-day cell proliferation assay (CTG); assay type: cell-based; settings: Homo sapiens, 120 h, Caco-2, Colorectal
Method in brief: as §1

Caki 2 = test: 5-day cell proliferation assay (CTG); assay type: cell-based; settings: Homo sapiens, 120 h, Caki 2, Kidney
Method in brief: as §1

HEP-3B = test: 5-day cell proliferation assay (CTG); assay type: cell-based; settings: Homo sapiens, Hep3B, 120 h, Liver
Method in brief: as §1

HUH-7 = test: 5-day cell proliferation assay (CTG); assay type: cell-based; settings: Homo sapiens, 120 h, HUH-7, Liver
Method in brief: as §1

Jurkat = test: 5-day cell proliferation assay (CTG); assay type: cell-based; settings: Homo sapiens, 120 h, Leukemia
Method in brief: as §1

KYSE-150 = test: 5-day cell proliferation assay (CTG); assay type: cell-based; settings: Homo sapiens, 120 h, KYSE-150, Oesophagus
Method in brief: as §1

MCF7 = test: 5-day cell proliferation assay (CTG); assay type: cell-based; settings: Homo sapiens, 120 h, MCF7, Breast
Method in brief: as §1

MKN-1 = test: 5-day cell proliferation assay (CTG); assay type: cell-based; settings: Homo sapiens, 120 h, MKN-1, Stomach/Gastric
Method in brief: as §1

MOLT-4 = test: 5-day cell proliferation assay (CTG); assay type: cell-based; settings: Homo sapiens, 120 h, MOLT-4, Leukemia
Method in brief: as §1

MS751 = test: 5-day cell proliferation assay (CTG); assay type: cell-based; settings: Homo sapiens, 120 h, MS751, Cervix
Method in brief: as §1

Malme-3M = test: 5-day cell proliferation assay (CTG); assay type: cell-based; settings: Homo sapiens, 120 h, Skin, highest tested concentration 10 μM
Method in brief: as §1

PC-3 = test: 5-day cell proliferation assay (CTG); assay type: cell-based; settings: Homo sapiens, 120 h, PC-3, Prostate
Method in brief: as §1

Raji = test: 5-day cell proliferation assay (CTG); assay type: cell-based; settings: Homo sapiens, 120 h, Lymphoma
Method in brief: as §1

SK-MEL5 = test: 5-day cell proliferation assay (CTG); assay type: cell-based; settings: Homo sapiens, SK-MEL-5, 120 h, SK-MEL5, Skin
Method in brief: as §1

SW480 = test: 5-day cell proliferation assay (CTG); assay type: cell-based; settings: Homo sapiens, 120 h, SW480, Colorectal
Method in brief: as §1

U937 = test: 5-day cell proliferation assay (CTG); assay type: cell-based; settings: Homo sapiens, U-937, 120 h, U937, Leukemia
Method in brief: as §1

VCAP = test: 5-day cell proliferation assay (CTG); assay type: cell-based; settings: Homo sapiens, 120 h, Prostate
Method in brief: as §1

WM-266-4 = test: 5-day cell proliferation assay (CTG); assay type: cell-based; settings: Homo sapiens, 120 h, WM-266-4, Skin
Method in brief: as §1

[1] = tested on: androgen receptor (AR)-target genes KLK3, TMPRSS2, SLC45A3 in LNCaP cells; test: P300/CBP-androgen receptor target gene expression regulation in prostate cancer cells (RT-qPCR); assay type: cell-based, human; settings: 300 nM added concomitantly to DHT (100 nM, 4 hours)
Description: LNCaP prostate cancer cells (CLS GmbH) were seeded at a density of 15′000 cells/cm^2 in 48-well cell culture-treated plates and cultured for 72 hours in RPMI1640 medium (Sigma-Aldrich) supplemented with Glutamax I (ThermoFisher-Gibco), “Antibiotic and Antimycotic Solution” (Sigma-Aldrich) and 1% fetal calf serum (Sigma-Aldrich). AR-driven gene expression response was induced by addition of the androgen signaling agonist dihydrotestosterone (Selleck Chemicals, Houston, TX, USA) to a concentration of 100 nanomol/Lt for 4 hours. Cells were treated with Compound 258 during dihydrotestosterone induction. Culture medium was carefully removed, cells were washed 1× with Phosphate-Buffered Saline (Sigma-Aldrich) and lysed using the SingleShot Cell Lysis Kit (Bio-Rad, Hercules, CA, USA). Gene expression of well-known AR-responsive genes prostate-specific antigen (KLK3, ThermoFisher), transmembrane serine protease 2 (TMPRSS2, ThermoFisher) and prostein (SLC45A3, ThermoFisher) was assessed by quantitative PCR after reverse transcription of the LNCaP RNA with the Applied Biosystem High-Capacity cDNA Reverse Transcription Kit (ThermoFisher). Gene expression was normalized against four reference genes (RPLP0, GUSB, GAPDH and ACTB, all probe detection systems were from Bio-Rad).

Work on `CC(C)C[C@@H]1NCCN([C@@H](CC(C)C)C(=O)N2CCC3(C[C@@H]2C)OCC(CN2CCCC2)CO3)C1=O` (stereo partly drawn) [Compound 258, (3S)-1-[(2S)-4-methyl-1-oxo-1-[(3s,6s,8S)-8-methyl-3-(pyrrolidin-1-ylmethyl)-1,5-dioxa-9-azaspiro[5.5]undec-an-9-yl]pentan-2-yl]-3-(2-methylpropyl)piper-azin-2-one (^≠), isomer Z] yielded a GI50 (A549) of 10 nM, a GI50 (BT474) of 72 nM and a GI50 (CaSki) of 35 nM. It also gave a GI50 (Caco-2) of 10 nM, a GI50 (Caki 2) of 14 nM and a GI50 (HEP-3B) of 23 nM. It also gave a GI50 (HUH-7) of 10 nM, a GI50 (Jurkat) of 18 nM and a GI50 (KYSE-150) of 11 nM. The GI50 (MCF7) was 55 nM, the GI50 (MKN-1) was 2 nM and the GI50 (MOLT-4) was 9 nM. It also gave a GI50 (MS751) of 51 nM, a GI50 (Malme-3M) of over 10000 nM and a GI50 (PC-3) of 13 nM. For the same molecule, the GI50 (Raji) was 28 nM, the GI50 (SK-MEL5) was 51 nM and the GI50 (SW480) was 22 nM. For the same molecule, the GI50 (U937) was 22 nM, the GI50 (VCAP) was 128 nM and the GI50 (WM-266-4) was 41 nM. The “repression of PSA (KLK3) gene expression stimulation” value [1] was “complete repression”, the “repression of SLC45A3 gene expression stimulation” value [1] was 80% and the “repression of TMPRSS2 gene expression stimulation” value [1] was 85%.

Reference: patent US20250115571A1, “OXOPIPERAZINE DERIVATIVES” (Inthera Bioscience AG, priority 2017, published 2025)
